Measurements from PubChem BioAssay (NCI).
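All cell lines were grown in 96-well plates and treated with compound for 48 hours. Abbreviation: GI50, concentration required for 50% inhibition of growth. TGI: total growth inhibition.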

Experiments:
Assay in all cases: NCI tumour cell line growth inhibition, 48 h
[1] = system: SK-MEL-2 melanoma
[2] = system: NCI-H522 lung
[3] = system: PC-3 prostate
[4] = system: SN12C renal
[5] = system: RXF 393 renal
[6] = system: SR leukemia
[7] = system: HS 578T breast
[8] = system: MDA-N
[9] = system: SNB-78 CNS
[10] = system: HOP-18 NSCLC
[11] = system: DMS 273 small cell lung
[12] = system: P388/ADR leukemia

| SMILES | TGI [1] | TGI [2] | TGI [3] | GI50 [4] | TGI [4] | GI50 [5] | TGI [5] | GI50 [1] | GI50 [6] | TGI [6] | GI50 [7] | TGI [7] | GI50 [3] | TGI [8] | TGI [9] | TGI [10] | TGI [11] | TGI [12] | GI50 [2] | GI50 [10] |
| --- | --- | --- | --- | --- | --- | --- | --- | --- | --- | --- | --- | --- | --- | --- | --- | --- | --- | --- | --- | --- |
| Cc1cccc(N2C(=O)C3c4[nH]c5ccc(C)cc5c4C4CCC(C(C)(C)C)CC4C3C2=O)c1 (stereo not drawn) | > 100 µM | 45.7 µM | 31.3 µM | – | – | – | – | – | – | – | – | – | – | – | – | – | – | – | – | – |
| CCCCCCCCCCCCCC[n+]1ccc(C)cc1 | 2.83 µM | – | 2.63 µM | 1.56 µM | 4.11 µM | 1.05 µM | 2.35 µM | 1.33 µM | 0.581 µM | 2.67 µM | 2.39 µM | 8.8 µM | 0.455 µM | – | – | – | – | – | – | – |
| CCCCOP(C)(=O)C(NC(=O)OCC)(C(F)(F)F)C(F)(F)F (stereo not drawn) | > 100 µM | > 100 µM | > 100 µM | – | > 100 µM | – | > 100 µM | – | – | > 100 µM | – | > 100 µM | – | > 100 µM | – | – | – | – | – | – |
| C=C1C(=O)OC2CC(C)C3C4OC4C(O)C3(C)C(O)C12 (stereo not drawn) | 72.7 µM | 26.4 µM | – | – | 72 µM | – | 53.7 µM | – | – | – | – | – | – | – | 61.6 µM | 72.4 µM | 67.2 µM | 49.3 µM | – | – |
| CSc1nc(N)c2c(-c3ccccc3)c3c(nc2n1)CCCC3 | – | – | > 100 µM | – | > 100 µM | – | 94.2 µM | – | – | > 100 µM | – | 48.5 µM | – | > 100 µM | – | – | – | – | – | – |
| COc1ccc(-c2c(-c3ccccc3)c(C)nc3nc(SC)nc(SC)c23)cc1OC | 60.6 µM | 35.4 µM | 41.7 µM | – | > 100 µM | – | > 100 µM | – | – | 2.6 µM | – | 82.3 µM | – | > 100 µM | – | – | – | – | – | – |
| Clc1ccc(C[P+](c2ccccc2)(c2ccccc2)c2ccccc2)cc1Cl | 6.4 µM | 10.3 µM | – | – | 15.3 µM | – | – | – | – | > 100 µM | – | – | – | – | 42.8 µM | 11 µM | 7.58 µM | – | – | – |
| C/C(N=NS(=O)(=O)c1ccc([N+](=O)[O-])cc1)=C1\C=CC=CN1O | – | > 100 µM | – | – | > 100 µM | – | – | – | – | > 100 µM | – | – | – | – | > 100 µM | > 100 µM | > 100 µM | – | – | – |
| O=C1/C(=C/c2ccc(O)cc2)COc2ccc(O)c(O)c21 | 38.6 µM | 0.596 µM | 13 µM | – | – | 1.55 µM | 3.82 µM | 6.21 µM | 1.1 µM | > 100 µM | 3.12 µM | > 100 µM | 2.48 µM | – | – | – | – | – | 0.187 µM | – |
| C/C(=N\O)c1cccc[n+]1Cc1ccccc1 | > 100 µM | > 100 µM | > 100 µM | – | > 100 µM | – | > 100 µM | – | – | > 100 µM | – | > 100 µM | – | > 100 µM | – | – | – | – | – | – |
| CC(C)c1ccccc1SCc1cc(=O)cc(CSc2ccccc2C(C)C)o1 | 34.5 µM | – | 30.7 µM | – | – | – | > 100 µM | – | – | > 100 µM | – | 32.9 µM | – | 44.9 µM | – | – | – | – | – | – |
| CC12CCC(CC1)C(C)(C)O2 | 118 µM | 77.3 µM | – | – | 71.7 µM | – | 56.9 µM | – | – | – | – | – | – | – | 261 µM | 88.5 µM | 18.3 µM | 42.6 µM | – | 16.7 µM |
| O=C(O)/C=C/c1c[nH]c(=O)[nH]c1=O | > 500 µM | > 500 µM | – | > 500 µM | > 500 µM | > 500 µM | > 500 µM | – | – | – | – | – | – | – | > 500 µM | > 500 µM | > 500 µM | > 500 µM | – | – |
